In patent US8034373B2, “Methods and compositions for reducing oxidative stress in an animal” (Nestec S. A., priority 2004, dated 2011):
Marks after values point to notes of the source that are not given here.

Key:
[1] = reported; in words; cited from earlier work
[2] = system: natural killer (NK) cells; assay: NK cell cytotoxicity of cells from animals fed astaxanthin; type: in vivo, dog; conditions: animals fed a diet containing astaxanthin vs control animals
Description: (§1) To assess the effect of astaxanthin supplementation on immune function, dogs may be fed a diet containing astaxanthin and/or Vitamin E for 16 weeks. The amount of astaxanthin used may be 0, 1, 5, 10, 20, and 40 mg per animal per day. Various assays may be performed to assess immune function.
In another assay, natural killer (NK) cell cytotoxicity is assessed for NK cells isolated from animals that are fed a diet including astaxanthin supplementation.

malondialdehyde = assay: Plasma malondialdehyde (MDA) in exercising sled dogs; type: in vivo, dog
Description: (§2) Three groups of twelve dogs (mixed breed Alaskan sled dogs (husky pointer crosses)) were fed commercially available Pro Plan® Performance chicken and rice formula dog food as a basal diet, and each group was fed either: a placebo consisting of about 0.5 g maltodextrin, about 2 mg astaxanthin, or about 400 mg Vitamin E (alpha-tocopherol). Pro Plan® dog food is available from Nestlé Purina Pet Care Company in St. Louis, Mo. The dogs were trained three times a week on an exercise wheel for a period of six weeks. On the sixth week, the dogs rested for four days and then exercised three days in a row. Blood samples were collected before exercise on day one, immediately after exercise on day three, and at 24 hours and 48 hours after exercise. Plasma from the blood samples was analyzed for concentrations of malondialdehyde, F-2 isoprostanes, Vitamin E, creatine kinase activity as well as oxygen radical absorption capacity (ORAC).
(§3) All the dogs were maintained on the same basal diet (Purina Pro Plan® Performance chicken and rice formula) for one month prior to the onset and the entire duration of the experiment. Each dog was fed as an individual to maintain an optimal body condition score of 4/10.
(§4) Thirty-six sled dogs were housed at the Nestle Purina facility in Salcha, Ak. The dogs were divided into three groups of 12 dogs so that each group was alike in age, sex and ability distribution. A treatment was randomly assigned to each group by drawing from a hat. Group “A” was assigned about 400 mg Vitamin E/day, group “B” was assigned about 2 mg Astaxanthin/day and group “C” was assigned about 500 mg maltodextrin as a placebo. The people responsible for feeding, care, and training of the dogs were blind as to the identity of treatments until the completion of the study. Dogs were treated for six weeks before the onset of testing. They were also trained lightly for two sessions per week during this time period. Training sessions consisted of walking at 14 kilometers per hour for 2 hours in a 40-foot diameter circle tethered to a dog-walking wheel.
(§5) The testing took place over a six day period. On day one, pre-exercise blood samples were drawn from all the dogs. On day two, the dogs ran twelve km while pulling an all terrain vehicle (ATV) weighing 500 pounds. On day three, the dogs walked 16 miles on the dog wheel. On day four, the dogs again pulled the ATV for a distance of 12 kilometers. Immediately after exercise on day four, blood samples were drawn. Additional blood samples were drawn again at 24 hours and 48 hours after exercise. This sampling schedule was designed to examine changes in the parameters measured during exercise and during recovery. Samples were obtained by jugular venipuncture and collected into evacuated glass tubes containing sodium EDTA as an anticoagulant. Once collected they were kept on ice for not more than 10 minutes before they were centrifuged at 10,000 revolutions per minute (RPM) in 4° C. for a period of 10 minutes. The plasma was transferred into freezer vials where the dead space was replaced with gaseous nitrogen to decrease further oxidation during storage. The vials were then capped and immediately quenched in liquid nitrogen. The vials were recovered from liquid nitrogen and stored at −70° C. until analyzed. Each plasma sample was analyzed for malondialdehyde concentration using a standard HPLC, F2-isoprostane concentration utilizing a mass spectrometer and standard ELISA, Vitamin E concentration utilizing a standard HPLC, and Oxidative Radical Absorbance Capacity (ORAC test kit, Oxford Co.
(§6) F2 isoprostane and CK data was evaluated using a two way ANOVA for repeated measures. Post hoc comparisons were made using a student's t test corrected for repeated measures by the Bonneferroni method. Statistical significance was set at p<0.05. The other data was also evaluated using ANOVA. The abbreviation “se” used with respect to the data in the tables below refers to standard error.

Creatine Kinase = assay: Plasma creatine kinase (CK) in exercising sled dogs; type: in vivo, dog
Description: as §2, §3, §4
as §5, with “The plasma was transferred into freezer vials where the dead space was replaced with gaseous nitrogen to decrease further oxidation during storage. The vials were then capped and immediately quenched in liquid nitrogen.” left out
F2 isoprostane and CK data was evaluated using a two way ANOVA for repeated measures. […] The other data was also evaluated using ANOVA. […]

F2-isoprostane = assay: Plasma F2-isoprostane (F2I) in exercising sled dogs; type: in vivo, dog; conditions: for Plasma F2I compared to the placebo group: in words
Description: as §2, §3, §4, §5, §6

[3] = Delayed-type hypersensitivity skin reactions; type: in vivo, dog; conditions: animals fed a diet containing astaxanthin vs control animals
Description: as §1
Delayed-type hypersensitivity may also be assessed in animals given a diet supplemented with astaxanthin. In these assays, control animals and animals fed a diet containing astaxanthin are given cutaneous injections of saline, a mitogen or a vaccine of distemper virus. The animals are then assessed to measure the skin reactions to mitogen, virus and control. In animals fed a diet containing astaxanthin, the skin reactions are more robust for virus and mitogen than that found in control animals.

[4] = in words; cited from earlier work
[5] = Plasma Vitamin E in exercising sled dogs
Description: as §2, §3, §4, §5, §6

cataract formation = assay: In vivo cataract formation study, slit-lamp test; parameters: species or system dog; conditions: dogs, e.g. two year study; astaxanthin optionally with Vitamin E, lutein, zeaxanthin, zinc
From the text: In a model study, 40 dogs could be chosen and randomly allocated to either the control group or to a treatment group receiving AAFCO recommended levels of antioxidants. The treatment group would receive astaxanthin and may also receive one or more of Vitamin E, lutein, zeaxanthin and zinc.

total ORAC = assay: Plasma total Oxidative Radical Absorptive Capacity (ORAC) in exercising sled dogs; type: in vivo, dog; conditions: for ORAC improvement by supplementation: any of the time periods measured, in words
Description: as §2, §3, §4, §5, §6

osteoarthritis = assay: Osteoarthritis diet study: plasma and synovial fluid markers, gait; type: in vivo, dog
From the text: A diet supplemented with astaxanthin may be shown to reduce inflammation and associated pain in osteoarthritis. […] At 12 weeks of treatment, plasma and synovial fluid samples are taken from each animal and assayed for total antioxidant activity, and levels of malionaldehyde, prostaglandin, isoprostanes, MMPs and TIMPs. Additionally, the gait of the dogs may be assessed using standard force plate analyses.

[6] = Antibody titers against an antigen; type: in vivo, dog; conditions: animals fed a diet containing astaxanthin vs control animals
Description: as §1
Control animals and animals fed a diet containing astaxanthin may also be assessed for the robustness of the immune response against an antigen. For example, antibody titers against an antigen may be measured for control animals and animals fed a diet containing astaxanthin.

[7] = system: peripheral blood mononuclear cells (PBMCs); assay: In vitro lymphoproliferation of stimulated PBMC; type: cell-based, dog; conditions: astaxanthin added directly to the media during stimulation
[8] = cited from earlier work
[9] = system: canine lens epithelial cells; assay: UV-stressed canine lens epithelial cells supplemented with astaxanthin; type: cell-based
From the text: An in vitro experiment may be performed using canine lens epithelial cells supplemented with astaxanthin at physiological levels.

[10] = Pre-ex, sled dogs, about 2 mg astaxanthin/day or about 400 mg Vitamin E/day for six weeks

SMILES: CC1=C(/C=C/C(C)=C/C=C/C(C)=C/C=C/C=C(C)/C=C/C=C(C)/C=C/C2=C(C)C(=O)[C@@H](O)CC2(C)C)C(C)(C)C[C@H](O)C1=O [ATX, astaxanthin]
- potency in preventing lipid peroxidation and scavenging free radicals [1]: more potent than Vitamin E or Vitamin C
- NK cytotoxicity [2]: significantly increased
- Plasma MDA (mean) (malondialdehyde; 24 hour post, same treatment): 0.95
- Plasma MDA compared between treatment groups (malondialdehyde; 24 hours post exercise, in words): lower than either the placebo value or the Vitamin E value
- Change in Plasma MDA from Baseline (malondialdehyde; Pre to 48 hour Post): −0.004
- Plasma CK compared to the Vitamin E group (Creatine Kinase; all time periods but 24 hours post-exercise, in words): lower CK values than the Vitamin E group
- Plasma F2 Isoprostane concentration (mean) (F2-isoprostane; 24 hour post, same treatment): 90
- Plasma F2 Isoprostane concentration (mean) (F2-isoprostane; 48 hour post, same treatment): 66
- Plasma F2 Isoprostane concentration (mean) (F2-isoprostane; Post-ex, same treatment): 52
- Plasma F2I compared to the placebo group (F2-isoprostane): lower F2I values immediately post-exercise and at 24 hours post-exercise
- skin reactions to virus and mitogen (delayed-type hypersensitivity) [3]: more robust
- solubility (lipid / water compartments of the cell) [4]: soluble in both lipid and water compartments of the cell
- Plasma Vitamin E concentration compared between treatment groups ([5]; dog, in vivo): no significant difference
- cataract formation and severity (slit-lamp test) (cataract formation): control group has significantly more cataract formation
- Plasma total ORAC (mean) (total ORAC; 24 hour post, same treatment): 5700
- Plasma total ORAC (mean) (total ORAC; 48 hour post, same treatment): 4800
- ORAC improvement by supplementation (total ORAC): not improved
- gait (force plate analyses) (osteoarthritis; 12 weeks, compared to controls): significant improvement in gait
- isoprostanes, total antioxidant activity and MMPs (osteoarthritis; plasma and synovial fluid, 12 weeks, 1, 5, 10, 20, or 40 mg per animal per day): decrease
- antibody titers against an antigen [6]: higher antibody titers
- proliferation of PBMC [7]: increases proliferation of cells significantly more
- in vitro oxygen radical absorptive capacity relative to Vitamin E [8]: 4 times
- free radical formation and lipid peroxidation products ([9]; canine lens epithelia stressed with UV light, astaxanthin at physiological levels): significantly reduce
- cell death ([9]; canine lens epithelial cells stressed with UV light): significantly less cell death

SMILES: Cc1c(C)c2c(c(C)c1O)CC[C@@](C)(CCC[C@H](C)CCC[C@H](C)CCCC(C)C)O2 [Vitamin E, alpha-tocopherol]
- Plasma MDA (mean) (malondialdehyde; 24 hour post, same treatment): 1.44
- Plasma MDA (mean) (malondialdehyde; 48 hour post, same treatment): 1.44
- Plasma MDA (mean) (malondialdehyde; Post-ex, same treatment): 1.17
- Change in Plasma MDA from Baseline (malondialdehyde; Pre to 24 hour post): −0.071
- Change in Plasma MDA from Baseline (malondialdehyde; Pre to 48 hour Post): −0.069
- Change in Plasma MDA from Baseline (malondialdehyde; Pre to Post): −0.336*
- Plasma MDA (mean) (malondialdehyde; [10]): 1.51
- Plasma Creatine Kinase (mean) (Creatine Kinase; 24 hour post, same treatment): 184
- Plasma Creatine Kinase (mean) (Creatine Kinase; 48 hour post, same treatment): 204
- Plasma Creatine Kinase (mean) (Creatine Kinase; Post-ex, same treatment): 208
- Plasma Creatine Kinase (mean) (Creatine Kinase; [10]): 139
- Plasma F2 Isoprostane concentration (mean) (F2-isoprostane; 24 hour post, same treatment): 130
- Plasma F2 Isoprostane concentration (mean) (F2-isoprostane; 48 hour post, same treatment): 78
- Plasma F2 Isoprostane concentration (mean) (F2-isoprostane; Post-ex, same treatment): 223
- Plasma F2 Isoprostane concentration (mean) (F2-isoprostane; [10]): 144
- Plasma F2I compared to the placebo group (F2-isoprostane): not different from the placebo value except at the 24 hour post-exercise time period where it was lower
- solubility (lipid / water compartments of the cell) [4]: lipid soluble only
- Plasma Vitamin E (mean) ([5]; 24 hour post, same treatment): 4720
- Plasma Vitamin E (mean) ([5]; 48 hour post, same treatment): 4520
- Plasma Vitamin E (mean) ([5]; Post-ex, same treatment): 3540
- Plasma Vitamin E (mean) [5, 10]: 3370
- Plasma Vitamin E concentration compared between treatment groups ([5]; all time periods, in words): greatest
- Plasma total ORAC (mean) (total ORAC; 24 hour post, same treatment): 7590
- Plasma total ORAC (mean) (total ORAC; 48 hour post, same treatment): 4840
- Plasma total ORAC (mean) (total ORAC; Post-ex, same treatment): 5850
- Plasma total ORAC (mean) (total ORAC; [10]): 7480
- ORAC improvement by supplementation (total ORAC): not improved
